Data set [1] concerns Tcf4+/tr mouse model of PTHS. Kind of data set: Novel open field assay (locomotor activity and anxiety). To be noted: Tcf4+/tr mice. It counts as in vivo. The procedure: (§1) The final pH was approximately 5.
(§2) Mice were dosed at 1.0 mg/kg/day for 14 days with either Sob-AM2 or NMP/Kolliphor solution (vehicle).
Locomotor activity and anxiety was assessed using Noldus PhenoTyper cages as previously shown. Mickelsen et al., 2019. Each cage is outfitted with two sets of cameras; one on the ceiling that faces the platform (35 cm×35 cm), and another pointed at the side of the cage. Mice were acclimated to the experimentation room in their home cages for at least 1 h. During acclimation, the Noldus EthoVision software was set-up to track movement for 30 total minutes. After acclimation, mice were placed in the center of the open field, opaque Plexiglas was placed on all four sides of the cage to obscure any visual cues, and the trial was started in the EthoVision software. After 30 min, the trial ended, and mice were placed back into their home cages. Noldus EthoVision software was used to determine distance traveled, time spent in center, and frequency of going to center.
Next we treated Tcf4^+/tr mice and Tcf4^+/+ littermates with Sob-AM2 for 14 days and then assayed their behavior in the open field (FIG. 8A).

Data set [2] deals with Tcf4+/tr mouse model of PTHS. Put plainly: In vivo immunohistochemical (IHC) quantification of OPCs and OLs after two-week intraperitoneal dosing.
Source text: The Tcf4^+/tr mouse model of PTHS is heterozygous for an allele encoding deletion of the DNA-binding domain of TCF4 (B6; 129-TCF4tmlZhu/J, stock number 013598, Jackson Laboratory). This mouse colony was backcrossed for at least six generations, maintained by The Lieber Institute for Brain Developments Animal Facility on a 12-h light/dark cycle and fed ad libitum. Tcf4^+/tr mouse samples were matched with samples from Tcf4^+/+ littermates, and sex was randomly selected in each genotype and age group. All procedures were performed in accordance with the National Institutes of Health Guide for the Care and Use of Laboratory Animals and approved by the Johns Hopkins University School of Medicine's Institutional Animal Care and Use Committee.
as §1, §2
(§3) Cells were rinsed 1× with PBS and then fixed with 4% paraformaldehyde (PFA) for 5 minutes, following fixation cells were rinsed 3× with PBS. Similarly, mice were perfused with 20-30 mLs of 1× PBS, followed by 20-30 mLs of 4% PFA. Tissue was extracted and post fixed in 4% PFA on a rocker at 4° C. overnight. For immunostaining cells were rinsed 3× with 0.04% Tween 20 (Sigma 655204) while tissue (P42 mouse) was rinsed 3× with 0.4% Triton (Sigma X100). Cells were blocked in respective serum (10%) for 2 hours at room temperature on an orbital shaker. Following block, primary antibody was added in 2% serum in 0.04% Tween 20 for cells and 0.4% Triton-X 100 for tissue, and incubated overnight at 4° C. Following overnight incubation cells were rinsed 3× with 0.04% Tween 20 or 0.4% Triton respectively before adding the secondary antibody to incubate at room temperature for 2 hours. After incubation, cells were rinsed 3× in respective buffers and counterstained with DAPI (Invitrogen™, D1306). Visualization was carried out on a ZEISS LSM 700 Confocal. Imaging and quantification were performed blind to genotypes and conditions/treatments.
Next, we assessed the effectiveness of Sob-AM2 in vivo by dosing Tcf4^+/tr mice and Tcf4^+/+ littermates intraperitoneally with either Sob-AM2 (1 mg/kg) or vehicle for two weeks followed by immunohistochemical (IHC) quantification (FIG. 7D).

The conditions of data set [3]: following systemic administration, prodrug compared with sobetirome; cited from earlier work.
Data set [4] deals with primary OPC/OL cultures from Tcf4+/tr and Tcf4+/+ mice. Kind of data set: Primary OPC and OL cultures: immunocytochemistry quantification of OPCs and OLs normalized to Olig2. It counts as cell-based, mouse. The following applies: for OPCs (PDGFRα+/Olig2+) / mature OLs (MBP+/Olig2+): Tcf4+/tr cells. The protocol:
Mice were dosed at 1.0 mg/kg/day for 14 days with either Sob-AM2 or NMP/Kolliphor solution (vehicle). Initial dosing was performed at P28 up until P42 when animals were then used for subsequent experiments.
Primary OPC and OLs were obtained following a previous protocol^19. In brief, P2-P3 pups were dissociated and plated at a density of 10.0×10^3 cells/cm^2 in a 96 well ibidi plate coated in 0.1% polyethyleneimine (PEI) and 0.5-μg/mL laminin. Cells were plated and maintained in OPC proliferation media consisting of 1× StemPro Neural supplement (Thermo Fisher Scientific, A1050801), 1× Anti-Anti (Thermo Fisher Scientific, 15240-096), 10 ng/mL of Human FGF-basic (Peprotech, 100-18B) and 30 ng/mL rhPDGF-AA (R&D systems, 221-AA), with a half media exchange on DIV4.
as §3
Mei et al., 2014; Yoshida et al., 2020. Following a previously established protocol, Yoshida et al., 2020, we dissociated and plated OPCs from both Tcf4^+/+ and Tcf4^+/tr mice onto 96-well plates in OPC proliferation media. […] We performed blinded quantification of OPCs and OLs using antibodies against PDGFRα and MBP, respectively, and normalized our counts with the pan-OL marker OLIG2 (FIG. 1B).
Hartley et al., 2019. We performed blinded quantification of OPCs and OLs using antibodies against PDGFRα and MBP, respectively, and normalized our counts with the pan-OL marker OLIG2 (FIG. 7A).

For data set [5], the system named is Tcf4+/tr mouse model of PTHS. Kind of data set: Transmission electron microscopy (TEM) of myelination in the corpus callosum. The data set is classed as in vivo. The procedure: 5% DMA (dimethylacetamide, Sigma 271012) was added up to the total volume needed. […] The mixture was shaken vigorously (vortex) and was ready for administration for intraperitoneal (1P) dosing at 10 mL/kg. The final pH was approximately 5. […] Initial dosing was performed at P28 up until P42 when animals were then used for subsequent experiments.
After perfusion with a 0.1 M sodium cacodylate buffer, pH 7.2, containing 2% paraformaldehyde (freshly prepared from EM grade aqueous solution), 2% glutaraldehyde, and 3 mM MgCl2, p42 mouse brains were kept overnight in fixative. The next day brains were dissected in fixative and rinsed with sodium cacodylate buffer. Samples were then post-fixed in reduced 2% osmium tetroxide, 1.6% potassium ferrocyanide in buffer (2 hr) on ice in the dark. Following a dH2O rinse, samples were stained with 2% aqueous uranyl acetate (0.22 μm filtered, 1 hr, dark), dehydrated in a graded series of ethanol, propylene oxide and embedded in Eponate 12 (Ted Pella) resin. Samples were polymerized at 60° C. overnight. Thin sections, 60 to 90 nm, were cut with a diamond knife on the Reichert-Jung Ultracut E ultramicrotome and picked up with copper slot (1×2 mm) grids. Grids were stained with 2% uranyl acetate and observed with a Phillips CM120 TEM at 80 kV. Images were captured with an AMT XR80 CCD camera. Preparation of samples, TEM imaging, and quantification was performed blind to genotypes.
Blinded to genotype and condition, TEM images were taken on the CC directly above the hippocampus from anatomically equivalent tissue sections in littermates. […] To further validate this, we quantified BCAS1+ cells (pre-myelinating OLs).

For data set [6], the system named is multiple sclerosis. The following applies: phase 2 clinical trial for multiple sclerosis; cited from earlier work.
[7] abbreviates: Sob-AM2 for 14 days, compared to vehicle-treated Tcf4+/tr littermates.
Where [8] appears, read: Tcf4+/tr mice, Sob-AM2 1 mg/kg intraperitoneally for two weeks.
[9] abbreviates: sobetirome (1 μM) 7 days to DIV14, compared to vehicle-treated Tcf4+/tr cells.
Where [10] appears, read: clemastine for 14 days, 30 min open field.
Where [11] appears, read: clemastine (1 μM) DIV7 to DIV14, compared to vehicle treated Tcf4+/tr cells.
The mark [12] stands for this setting: Tcf4+/tr mice, clemastine 10 mg/kg intraperitoneally for two weeks (P28-P42).

Where a name gives a salt, the structure may show the parent alone.

Regarding `CNC(=O)COc1cc(C)c(Cc2ccc(O)c(C(C)C)c2)c(C)c1` [Sob-AM2], in data set [1] (setting [7]), the “frequency of entering the center of the open field” value is “reduction in the frequency of entering the center of the open field” and the total distance traveled result is “significant reduction in total distance traveled”. Moreover, in data set [2] (setting [8]), the “OPCs (PDGFRα+/Olig2+)” value was “significant decrease in OPCs” and the “mature OLs (CC1+/Olig2+)” value is reported as “significant increase in mature OLs”. For the same molecule, the “crossing of the blood brain barrier and distribution to the central nervous system” value in data set [3] is listed as “better able to cross the blood brain barrier”.
Turning to `Cc1cc(OCC(=O)O)cc(C)c1Cc1ccc(O)c(C(C)C)c1` [sobetirome], in data set [4] (setting [9]), the “OPCs (PDGFRα+/Olig2+)” value is on record as “significant reduction in OPCs” and the “mature OLs (MBP+/Olig2+)” value is listed as “an increase in OLs”.
Consider `CN1CCC[C@@H]1CCO[C@](C)(c1ccccc1)c1ccc(Cl)cc1` [clemastine, clemastine fumarate], for which, in data set [1] (setting [10]), the “frequency of entering the center of the field” value is listed as “reduction in the frequency of entering the center of the field” and the total distance traveled result is “significant reduction in total distance traveled”. Further, in data set [4] (setting [11]), the “OPCs (PDGFRα+/Olig2+)” value was “significant reduction in OPCs” and the “mature OLs (MBP+/Olig2+)” value was “an increase in OLs”. In addition, the “total number of Olig2 positive cells, in vitro” value in data set [4] (all conditions, in vitro assay) is listed as “no effect on the total number of Olig2 positive cells”. Moreover, the “density of uncompacted myelin” value in data set [5] (Tcf4+/tr mice, clemastine vs vehicle-treated Tcf4+/tr mice) was “significantly increased the density of uncompacted myelin”. Besides, in data set [5] (Tcf4+/tr mice, relative to vehicle-treated Tcf4+/+ mice), the “proportion of uncompacted myelin” value is on record as “normalized the proportion of uncompacted myelin”. Besides, in data set [5] (Tcf4+/tr mice, two week clemastine treatment), the total myelin density result is listed as “unable to restore Tcf4^+/+ levels of total myelin density”. Moreover, in data set [5] (clemastine Tcf4+/+ and clemastine Tcf4+/tr), the “proportion of compact myelin per image” value is recorded as “less compaction overall”. Further, in data set [6], the remyelination in patients entry was “showed remyelination capabilities”. Besides, the “number of BCAS1+ cells (pre-myelinating OLs)” value in data set [2] (Tcf4+/tr mice, 14 days clemastine) was “significantly increased the number of BCAS1+ cells”. Besides, in data set [2] (setting [12]), the “OPCs (PDGFRα+/Olig2+)” value is listed as “significant decrease in OPCs” and the “mature OLs (CC1+/Olig2+)” value is given as “significant increase in mature OLs”. In addition, the “total number of Olig2 positive cells, in vivo” value in data set [2] (all conditions, in vivo assay) is “no effect on the total number of Olig2 positive cells”.

(Values after patent publication US20240307334A1 (Lieber Institute, Inc., priority 2023, published 2024).)
